IC50 data for five compounds are collected here from patent US20260159484A1, “AKT3 MODULATORS” (GEORGIAMUNE LLC, priority 2021, published 2026).

Usually IC50 stands for the concentration that inhibits the measured activity by half. A higher IC50 goes with a need for much substance.

Where only a bound is given, the exact number is not on record here.

T1 sequence (Q9WUA6 whole entry): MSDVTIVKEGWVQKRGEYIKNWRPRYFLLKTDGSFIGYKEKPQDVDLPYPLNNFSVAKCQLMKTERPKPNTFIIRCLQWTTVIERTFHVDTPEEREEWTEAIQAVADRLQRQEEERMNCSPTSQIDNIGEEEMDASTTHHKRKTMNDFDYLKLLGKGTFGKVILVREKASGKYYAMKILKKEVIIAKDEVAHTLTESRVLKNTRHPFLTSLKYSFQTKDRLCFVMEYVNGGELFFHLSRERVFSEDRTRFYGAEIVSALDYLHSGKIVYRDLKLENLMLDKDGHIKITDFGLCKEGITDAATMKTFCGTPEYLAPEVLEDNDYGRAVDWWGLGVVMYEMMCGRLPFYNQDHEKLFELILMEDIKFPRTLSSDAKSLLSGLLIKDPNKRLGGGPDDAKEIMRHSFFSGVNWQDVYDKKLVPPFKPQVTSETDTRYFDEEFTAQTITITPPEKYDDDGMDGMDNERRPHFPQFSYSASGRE

This test concerns the target T1, Akt3 (Mus musculus, UniProt Q9WUA6).
T1 construct: endogenous in cells; host or cells: primary CD4 conventional T cells (CD4+/CD25-) from C57BL/6 mice
Put plainly: Foxp3 induction assay (iTreg induction from CD4 conventional T cells); reported as Akt3 inhibition activity. The format is cell-based. The settings on record: Foxp3 induction in CD4 Tconvs from C57/B16 mice, anti-CD3/anti-CD28, IL2, TGF-β, 3 days of culture, flow cytometry. How it is done:
Sorted or enriched (Miltenyi magnetic separation) CD4 conventional T cells (Tconvs -CD4+/CD25) from C57/B16 mice were used for the induction of iTregs. A 10 μg/mL plate-bound anti-CD3 antibody (50ul per well for 96-well plate), 2.5 μg/mL of soluble anti-CD28 antibody, 100 IU/mL of IL2 and 5 ng/mL of TGF-β in absence or presence of different concentrations of drug (usually titrating from 0.01 uM to 10 uM) were used. As negative control for induction, samples without TGF-β were used.
After 3 days of culture in presence of stimulation, TGF-β and drug, cells were stained with fixable live/dead cell stain (Life Technologies, NY) for gating and exclusion of toxic doses. The mouse Foxp3 buffer kit was used to fix and permeabilize cells according to the manufacturer's instructions (BD Bioscience, San Jose, CA). The anti-CD4 antibody and anti-Foxp3 antibody were used to stain the cells. After staining, cells were acquired using flow cytometer.
In general terms: A flow cytometer gives signals particle by particle.
On to `CC(=O)c1ccccc1NC(=O)c1ccc(Nc2c(C)cnc3ccccc23)cc1` [Compound 2, N-(2-acetylphenyl)-4-((3-methylquinolin-4-yl)amino)benzamide], for which the IC50 is less than 1 µM.

Take `CC(=O)c1ccccc1NC(=O)Cc1ccc(Nc2c(C)cnc3ccccc23)cc1` [Compound 3, N-(2-acetylphenyl)-2-(4-((3-methylquinolin-4-yl)amino)phenyl)acetamide]: the IC50 is less than 1 µM.

`CC(=O)c1cnccc1NC(=O)Cc1ccc(Nc2cc(C)nc3ccccc23)cc1` [Compound 6, N-(3-acetylpyridin-4-yl)-2-(4-((2-methylquinolin-4-yl)amino)phenyl)acetamide] came in with an IC50 of less than 5 µM.

As to `CC(=O)c1cccc(NC(=O)Cc2ccc(Nc3cc(C)nc4ccccc34)cc2)c1` [Compound 5, N-(3-acetylphenyl)-2-(4-((2-methylquinolin-4-yl)amino)phenyl)acetamide], the IC50 was less than 2 µM.

In turn, `Cc1cnc2ccccc2c1Nc1ccc(CC(=O)Nc2ccccc2S(N)(=O)=O)cc1` [Compound 1, 2-(4-((3-methylquinolin-4-yl)amino)phenyl)-N-(2-sulfamoylphenyl)acetamide] gave an IC50 of less than 1 µM.
